{"source": "paper PMC9517990", "about": "(Communications Biology, 2022)", "key": {"[1]": {"system": "A/South Korea/90207/2020 NA-H275Y + PA-I38T virus", "format": "cell-based, influenza A(H1N1)pdm09 virus"}, "[2]": {"system": "A/South Korea/90207/2020 NA-H275Y virus", "format": "cell-based, influenza A(H1N1)pdm09 virus"}, "[3]": {"system": "A/South Korea/90207/2020 PA-I38T virus", "format": "cell-based, influenza A(H1N1)pdm09 virus"}, "[4]": {"molecular_target": "neuraminidase of A/South Korea/90207/2020 PA-I38T virus (Influenza A virus (A(H1N1)pdm09), UniProt A0A0X9QTS2)", "format": "biochemical"}, "[5]": {"molecular_target": "neuraminidase of A/South Korea/90207/2020 NA-H275Y + PA-I38T virus (Influenza A virus (A(H1N1)pdm09), UniProt A0A0X9QTS2, H275Y)", "format": "biochemical"}, "[6]": {"molecular_target": "neuraminidase of A/South Korea/90207/2020 NA-H275Y virus (Influenza A virus (A(H1N1)pdm09), UniProt A0A0X9QTS2, H275Y)", "format": "biochemical"}, "[7]": {"details": "read-out: EC50 nM ± SD (column headed IC50; footnote: EC50)"}}, "data": [{"smiles": "O=C1c2c(O)c(=O)ccn2N([C@@H]2c3ccccc3SCc3c2ccc(F)c3F)[C@@H]2COCCN12", "note": "[Baloxavir, Baloxavir acid]", "values": [{"measurement": "EC50 fold change compared to WT", "setting": "[1]", "result": 190, "unit": "fold"}, {"measurement": "EC50", "setting": "[1]; [7]", "result": 194, "unit": "nM"}, {"measurement": "EC50 fold change compared to WT", "setting": "[2]", "result": 1, "unit": "fold"}, {"measurement": "EC50", "setting": "[2]; [7]", "result": "1.2 ± 0.3", "unit": "nM"}, {"measurement": "EC50 fold change compared to WT", "setting": "[3]", "result": 373, "unit": "fold"}, {"measurement": "EC50", "setting": "[3]; [7]", "result": 380, "unit": "nM"}]}, {"smiles": "CCC(CC)[C@H](NC(C)=O)[C@@H]1[C@H](O)[C@@H](C(=O)O)C[C@H]1N=C(N)N", "note": "[Peramivir, peramivir]", "values": [{"measurement": "IC50", "setting": "[4]", "result": 0.26, "unit": "nM"}, {"measurement": "IC50 fold change compared to WT", "setting": "[4]", "result": 2, "unit": "fold"}, {"measurement": "IC50", "setting": "[5]", "result": 16.2, "unit": "nM"}, {"measurement": "IC50", "setting": "[6]", "result": "16.8 ± 3.1", "unit": "nM"}]}]}
